In US20260365647A1, “AKT1 MODULATORS” (Alterome Therapeutics, Inc., priority 2022, published 2026):
pIC50: −log10 of the molar value.

Target: T1, AKT1-E17K (Homo sapiens, UniProt P31749, E17K)
T1 construct: host or cells: HEK-293 (ATCC CRL-1573)
Assay: NanoBRET Target Engagement (TE) Assay
Assay type: cell-based
Description: The NanoBRET™ Target Engagement (TE) Intracellular Kinase Assays are based on the NanoBRET™ System (Promega Corporation), an energy transfer technique designed to measure molecular proximity in living cells. The NanoBRET™ TE Assays measure the apparent affinity of test compounds by competitive displacement of the NanoBRET™ tracer compound, which is a cell permeable molecule engineered to be reversibly bound to a NanoLuc® luciferase-kinase fusion expressed in cells. For compound screening, when a test compound binds to the selected kinase, the BRET signal is attenuated. […] All cells were evaluated for viability prior to transfection and optimization of the transfection was done prior to experimentation. […] Following transfection, cells were washed and resuspended in Opti-MEM. NanoBRET assays were performed in white, 384-well plates (Corning) at a density of […]. All example compounds were prepared as concentrated stock solutions in DMSO (Sigma-Aldrich). Compounds are dissolved in DMSO to make 10 mM stock solution. […] A Labcyte ECHO 550 compound dispenser was used to facilitate compound transfer directly to cells. Cells were equilibrated for 2 hr with energy transfer probes and example compound prior to BRET measurements. […] For target engagement analysis, the energy transfer probes were added to the cells at concentrations optimized for the target in question (AKT E17K). Following compound incubation, NanoBRET NanoGlo Substrate (Promega Cat #N157D) and Extracellular Nanoluc Inhibitor (Promega Cat #N235C) was added according to the manufacturer's recommended protocol, and luminescence was measured on Envision Reader (Perkin Elmer) Multimode Luminometer equipped with 450 nmBPfilter (donor) and 600 nmLPfilter (acceptor), using 0.5 s integration time. Milli-BRET units (mBU) are calculated by multiplying the raw BRET values by 1000. Apparent tracer affinity values (EC50) were determined using the sigmoidal dose-response (variable slope). Competitive displacement data were then plotted and data were fit to determine the EC50 value for each example compound.

T1 sequence (P31749 whole entry E17K): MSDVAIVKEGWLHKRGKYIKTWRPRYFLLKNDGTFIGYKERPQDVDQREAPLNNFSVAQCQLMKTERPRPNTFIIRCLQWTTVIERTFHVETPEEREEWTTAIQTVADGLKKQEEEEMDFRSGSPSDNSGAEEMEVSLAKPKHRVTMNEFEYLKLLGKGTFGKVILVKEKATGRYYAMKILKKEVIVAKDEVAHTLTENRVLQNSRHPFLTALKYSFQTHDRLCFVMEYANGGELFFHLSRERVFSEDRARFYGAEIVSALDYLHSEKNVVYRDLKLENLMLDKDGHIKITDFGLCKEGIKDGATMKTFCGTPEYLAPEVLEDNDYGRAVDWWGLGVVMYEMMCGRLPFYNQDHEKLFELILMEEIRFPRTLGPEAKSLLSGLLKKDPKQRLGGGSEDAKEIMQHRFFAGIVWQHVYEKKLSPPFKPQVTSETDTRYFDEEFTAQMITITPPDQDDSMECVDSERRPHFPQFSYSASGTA

Structure (SMILES)	pIC50
Nc1ncccc1-c1nc2ccc(-c3ccccc3)nc2n1-c1ccc(CN2CCC(N(C(=O)c3ccc(O)c(C=O)c3)C3CC3)CC2)cc1 [Example 12, N-(1-(4-(2-(2-aminopyridin-3-yl)-5-phenyl-3H-imidazo[4,5-b]pyridin-3-yl)benzyl)piperidin-4-yl)-N-cyclopropyl-3-formyl-4-hydroxybenzamide]	6.22 to 7.22
Nc1ncccc1-c1nc2ccc(-c3ccccc3)nc2n1-c1ccc(CN2CCCN(c3ccc(C=O)c(O)c3)CC2)cc1 [Example 120, 4-(4-(4-(2-(2-Aminopyridin-3-yl)-5-phenyl-3H-imidazo[4,5-b]pyridin-3-yl)benzyl)-1,4-diazepan-1-yl)-2-hydroxybenzaldehyde]	7.22 to 7.82
Nc1ncccc1-c1nc2ccc(-c3ccccc3)nc2n1-c1ccc(CN2CCN(c3ccc(C=O)c(O)c3)CC2)cc1 [Example 9, 4-(4-(4-(2-(2-Aminopyridin-3-yl)-5-phenyl-3H-imidazo[4,5-b]pyridin-3-yl)benzyl)piperazin-1-yl)-2-hydroxybenzaldehyde]	7.22 to 7.82
Nc1ncccc1-c1nc2ccc(-c3ccccc3)nc2n1-c1ccc(CN2CC3(C2)CN(c2ccc(O)c(C=O)c2)C3)cc1 [Example 91, 5-(6-(4-(2-(2-Aminopyridin-3-yl)-5-phenyl-3H-imidazo[4,5-b]pyridin-3-yl)benzyl)-2,6-diazaspiro[3.3]heptan-2-yl)-2-hydroxybenzaldehyde]	6.22 to 7.22
Nc1ncccc1-c1nc2ccc(-c3ccccc3)nc2n1-c1ccc(CN2CC3(CCN(C(=O)c4ccc(O)c(C=O)c4)C3)C2)cc1 [Example 92, 5-(2-(4-(2-(2-Aminopyridin-3-yl)-5-phenyl-3H-imidazo[4,5-b]pyridin-3-yl)benzyl)-2,6-diazaspiro[3.4]octane-6-carbonyl)-2-hydroxybenzaldehyde]	7.22 to 7.82
Nc1ncccc1-c1nc2ccc(-c3ccccc3)nc2n1-c1ccc(CN2CCC3(CC2)CCN(C(=O)c2ccc(C=O)c(O)c2)C3)cc1 [Example 75, 4-(8-(4-(2-(2-Aminopyridin-3-yl)-5-phenyl-3H-imidazo[4,5-b]pyridin-3-yl)benzyl)-2,8-diazaspiro[4.5]decane-2-carbonyl)-2-hydroxybenzaldehyde]	6.22 to 7.22
Nc1ncccc1-c1nc2ccc(-c3ccccc3)nc2n1-c1ccc(CN2CCC(NC(=O)c3ccc(O)c(C=O)c3)CC2)cc1 [Example 7, N-(1-(4-(2-(2-Aminopyridin-3-yl)-5-phenyl-3H-imidazo[4,5-b]pyridin-3-yl)benzyl)piperidin-4-yl)-3-formyl-4-hydroxybenzamide]	> 7.82
Nc1ncccc1-c1nc2ccc(-c3ccccc3)nc2n1-c1ccc(CN2CCC3(CCCN(C(=O)c4ccc(O)c(C=O)c4)C3)C2)cc1 (stereo not drawn) [Example 86, 5-(2-(4-(2-(2-Aminopyridin-3-yl)-5-phenyl-3H-imidazo[4,5-b]pyridin-3-yl)benzyl)-2,7-diazaspiro[4.5]decane-7-carbonyl)-2-hydroxybenzaldehyde]	6.22 to 7.22
C=Cc1cc(C=O)c(O)cc1N1CCN(Cc2ccc(-n3c(-c4cccnc4N)nc4ccc(-c5ccccc5)nc43)cc2)CC1 [Example 28, 4-(4-(4-(2-(2-Aminopyridin-3-yl)-5-phenyl-3H-imidazo[4,5-b]pyridin-3-yl)benzyl)piperazin-1-yl)-2-hydroxy-5-vinylbenzaldehyde]	6.22 to 7.22
Nc1ncccc1-c1nc2ccc(-c3cccc(F)c3)nc2n1-c1ccc(CN2CCN(C(=O)c3ccc(O)c(C=O)c3)CC2)cc1 [Example 40, 5-(4-(4-(2-(2-Aminopyridin-3-yl)-5-(3-fluorophenyl)-3H-imidazo[4,5-b]pyridin-3-yl)benzyl)piperazine-1-carbonyl)-2-hydroxybenzaldehyde]	6.22 to 7.22
Nc1ncccc1-c1nc2ccc(-c3cccc(Cl)c3)nc2n1-c1ccc(CN2CCN(C(=O)c3ccc(O)c(C=O)c3)CC2)cc1 [Example 42, 5-(4-(4-(2-(2-Aminopyridin-3-yl)-5-(3-chlorophenyl)-3H-imidazo[4,5-b]pyridin-3-yl)benzyl)piperazine-1-carbonyl)-2-hydroxybenzaldehyde]	6.22 to 7.22
Nc1ncccc1-c1nc2ccc(-c3ccccc3)nc2n1-c1ccc(CN2CCC3(CC2)CCN(c2ccc(C=O)c(O)c2)C3)cc1 [Example 76, 4-(8-(4-(2-(2-Aminopyridin-3-yl)-5-phenyl-3H-imidazo[4,5-b]pyridin-3-yl)benzyl)-2,8-diazaspiro[4.5]decan-2-yl)-2-hydroxybenzaldehyde]	6.22 to 7.22
Nc1ncccc1-c1nc2ccc(N3CCOCC3)nc2n1-c1ccc(CN2CCN(C(=O)c3ccc(O)c(C=O)c3)CC2)cc1 [Example 32, 5-(4-(4-(2-(2-Aminopyridin-3-yl)-5-morpholino-3H-imidazo[4,5-b]pyridin-3-yl)benzyl)piperazine-1-carbonyl)-2-hydroxybenzaldehyde]	< 6.22
Nc1ncccc1-c1nc2ccc(-c3ccccc3)nc2n1-c1ccc(CN2C[C@@H]3CN(C(=O)c4ccc(O)c(C=O)c4)C[C@@H]3C2)cc1 [Example 131, 5-((3aR,6aS)-5-(4-(2-(2-Aminopyridin-3-yl)-5-phenyl-3H-imidazo[4,5-b]pyridin-3-yl)benzyl)octahydropyrrolo[3,4-c]pyrrole-2-carbonyl)-2-hydroxybenzaldehyde]	6.22 to 7.22
Nc1ncccc1-c1nc2ccc(-c3ccccc3)nc2n1-c1ccc(CN2CC[C@@H](NC(=O)c3ccc(O)c(C=O)c3)C2)cc1 [Example 59, (R)—N-(1-(4-(2-(2-aminopyridin-3-yl)-5-phenyl-3H-imidazo[4,5-b]pyridin-3-yl)benzyl)pyrrolidin-3-yl)-3-formyl-4-hydroxybenzamide]	> 7.82
C[C@H]1CN(Cc2ccc(-n3c(-c4cccnc4N)nc4ccc(-c5ccccc5)nc43)cc2)CCN1C(=O)c1ccc(O)c(C=O)c1 [Example 105, (S)-5-(4-(4-(2-(2-Aminopyridin-3-yl)-5-phenyl-3H-imidazo[4,5-b]pyridin-3-yl)benzyl)-2-methylpiperazine-1-carbonyl)-2-hydroxybenzaldehyde]	6.22 to 7.22
Cn1cc(-c2ccc3nc(-c4cccnc4N)n(-c4ccc(CN5CCN(C(=O)c6ccc(O)c(C=O)c6)CC5)cc4)c3n2)ccc1=O [Example 44, 5-(4-(4-(2-(2-aminopyridin-3-yl)-5-(1-methyl-6-oxo-1,6-dihydropyridin-3-yl)-3H-imidazo[4,5-b]pyridin-3-yl)benzyl)piperazine-1-carbonyl)-2-hydroxybenzaldehyde]	< 6.22
Nc1ncccc1-c1nc2ccc(-c3ccccc3)nc2n1-c1ccc(CN2CCC3(C2)CN(C(=O)c2ccc(C=O)c(O)c2)C3)cc1 [Example 153, 4-(6-(4-(2-(2-aminopyridin-3-yl)-5-phenyl-3H-imidazo[4,5-b]pyridin-3-yl)benzyl)-2,6-diazaspiro[3.4]octane-2-carbonyl)-2-hydroxybenzaldehyde]	6.22 to 7.22
Nc1ncccc1-c1nc2ccc(-c3ccccc3)nc2n1-c1ccc(CN2CC3(C2)CN(C(=O)c2ccc(C=O)c(O)c2)C3)cc1 [Example 66, 4-(6-(4-(2-(2-Aminopyridin-3-yl)-5-phenyl-3H-imidazo[4,5-b]pyridin-3-yl)benzyl)-2,6-diazaspiro[3.3]heptane-2-carbonyl)-2-hydroxybenzaldehyde]	6.22 to 7.22
CN(C(=O)c1ccc(O)c(C=O)c1)C1CCN(Cc2ccc(-n3c(-c4cccnc4N)nc4ccc(-c5ccccc5)nc43)cc2)CC1 [Example 55, N-(1-(4-(2-(2-Aminopyridin-3-yl)-5-phenyl-3H-imidazo[4,5-b]pyridin-3-yl)benzyl)piperidin-4-yl)-3-formyl-4-hydroxy-N-methylbenzamide]	7.22 to 7.82
Nc1ncccc1-c1nc2ccc(-c3ccccc3)nc2n1-c1ccc(CN2CC3CCC(C2)N3C(=O)c2ccc(C=O)c(O)c2)cc1 [Example 109, 4-(3-(4-(2-(2-Aminopyridin-3-yl)-5-phenyl-3H-imidazo[4,5-b]pyridin-3-yl)benzyl)-3,8-diazabicyclo[3.2.1]octane-8-carbonyl)-2-hydroxybenzaldehyde]	< 6.22
Nc1ncccc1-c1nc2ccc(-c3ccccc3)nc2n1-c1ccc(CN2CCC(NC(=O)c3ccc(C=O)c(O)c3)CC2)cc1 [Example 8, N-(1-(4-(2-(2-Aminopyridin-3-yl)-5-phenyl-3H-imidazo[4,5-b]pyridin-3-yl)benzyl)piperidin-4-yl)-4-formyl-3-hydroxybenzamide]	6.22 to 7.22
CCN(C(=O)c1ccc(O)c(C=O)c1)C1CCN(Cc2ccc(-n3c(-c4cccnc4N)nc4ccc(-c5ccccc5)nc43)cc2)CC1 [Example 13, N-(1-(4-(2-(2-Aminopyridin-3-yl)-5-phenyl-3H-imidazo[4,5-b]pyridin-3-yl)benzyl)piperidin-4-yl)-N-ethyl-3-formyl-4-hydroxybenzamide]	6.22 to 7.22
Nc1ncccc1-c1nc2ccc(-c3ccccc3)nc2n1-c1ccc(CN2CCC(Oc3ccc(C=O)c(O)c3)CC2)cc1 [Example 129, 4-((1-(4-(2-(2-Aminopyridin-3-yl)-5-phenyl-3H-imidazo[4,5-b]pyridin-3-yl)benzyl)piperidin-4-yl)oxy)-2-hydroxybenzaldehyde]	7.22 to 7.82
